These results are taken from patent US20030073218A1, “High affinity inhibitors for target validation and uses thereof” (Princeton University, priority 1999, published 2003).

The target of series [1] is T1, Cdc28-as1 (F88G Cdc28) (Saccharomyces cerevisiae, UniProt P00546, F88G).
T1 construct: made in house
In words: In vitro sensitivity of Cdc28 kinases to PP1 derivatives (Example 19). It counts as biochemical. As to conditions: read-out: IC50, engineered Cdc28.

In series [2] the test system is I338G v-Src, T339G Fyn, T315A Abl, F89G CAMK IIα and F80G CDK2. The series is described as follows: In vitro inhibition, panel of engineered protein kinases. In kind it is biochemical.
In series [3] the test system is panel of wild-type protein kinases (v-src, Fyn, c-Abl, CAMK IIα, CDK2). In words: In vitro inhibition, panel of wild-type protein kinases. In kind it is biochemical.
For series [4], the target named is T2, I338G v-Src (Rous sarcoma virus subgroup A, UniProt P00524, DEL77-225/I338G).
T2 construct: screened against the catalytic domain of the target kinase, I338G v-Src; made in house; host or cells: E. coli DH5a, pGEX-KT
The series is described as follows: biochemical. It counts as biochemical. The conditions noted are these: Table 3; read-out: IC50, 1338G v-Src.

Series [5] deals with cdc28-as1 strain lacking PCL1 and PCL2. In words: Budding and DNA content after release from G1. It counts as cell-based, Saccharomyces cerevisiae. The conditions noted are these: G1 synchronized, released into 5,000 nM. Here is the method:
Pho85, a Cdk that is closely related to Cdc28, has been implicated in the initiation of budding in S. cerevisiae (128, 129). Therefore, the budding observed in cdc28-as1 cells released into 5,000 nM 1-NM-PP1 due to residual Cdc28-as1 activity or due to Pho85 activity was investigated. A cdc28-as1 strain lacking PCL1 and PCL2, which encode the two G1 activating cyclins of Pho85 were constructed. […] It was concluded that Pc11- and Pc12-associated Pho85 activity, and not residual Cdc28 activity, are responsible for the greatly delayed budding observed in cdc28-as1 cells treated with high concentrations of inhibitor.

The test system of series [6] is cdc28-as1 cells. In words: DNA content (flow cytometry) and morphology of yeast cells. In kind it is cell-based, Saccharomyces cerevisiae. As to conditions: for cell cycle effect (G2/M DNA content, large hyperpolarized buds): asynchronous cells. On the procedure:
DNA flow cytometry: Approximately 1×10^7 cells for each sample were fixed in 70% ethanol, resuspended in 50 mM Tris-HCl pH 8.0, briefly sonicated, digested with 2mg/ml RNase for 2 hours at 37° C., and resuspended in 0.2 ml protease solution (5 mg/ml pepsin. 0.5% concentrated HCl ) and digested for 45 minutes at 37° C. DNA was stained with 1μM Sytox Green (Molecular Probes) in 50 mM Tris-HCl pH 7.5 and 20,000 cells from each sample were scanned with a FACScan FACS machine (Becton-Dickinson).
Thus, it appears possible to titrate the level of Cdc28-as1 activity in vivo, allowing the identification of cell cycle events that are differentially sensitive to decreases in the catalytic activity of Cdc28.
When cdc28-as1 cells were synchronized in G1 with the yeast mating pheromone, α-factor factor, and then released into fresh media containing 500 nM 1-NM-PP 1, initiation of budding and DNA synthesis were delayed about 30 to 60 minutes, while accumulation of the mitotic cyclin Clb2 was delayed 60 to 90 minutes. […] Thus, cells treated with low concentrations of the inhibitor are slightly delayed during progression through early stages of the cell cycle, but eventually arrest due to a failure to assemble a mitotic spindle and enter mitosis.
These cells eventually budded after 180 to 240 minutes and arrested with a IC DNA content, large hyperpolarized buds, a single DNA mass in the mother cell, and an interphase astral microtubule array.

Series [7] deals with Fus3-as1 expressing yeast. The series is described as follows: Yeast mating assay for Fus3 function. As to conditions: 50 μM. It counts as cell-based, Saccharomyces cerevisiae.
Series [8] concerns the target T3, Cdc28-as1 · MBP-Clb2 (Saccharomyces cerevisiae, UniProt P00546, F88G).
T3 construct: made in house; host or cells: Sf9 insect cells, baculovirus, co-infected with Cak1-HA3 (Cdc28-as1-His6); bacteria (MBP-Clb2)
The series is described as follows: 1-NM-PP1 IC50, Histone H1 kinase assay. It counts as biochemical. As to conditions: 1 MM ATP. Here is the method: Phosphate incorporation was determined at each inhibitor concentration by scintillation counting.
Cdc28-as1 is highly sensitive to 1-NM-PP1 in vitro and is a slightly weakened kinase.

Series [9] has as its system cdc28-as1 cells. The series is described as follows: Genome-wide transcription, oligonucleotide DNA arrays. It counts as cell-based, Saccharomyces cerevisiae. The text has this: (§1) Error bars represent standard errors of the means.
(§2) Changes were deemed significant if they were greater than or equal to 2-fold or if the transcript changed present/absent status (as indicated by Affymetrix software) in the following comparisons: for non-specific drug effects: CDC28+1-NM-PP1 vs. CDC28; for cdc28-as1 effects: cdc28-as1 vs. CDC28.

Series [10] deals with wild-type cells. The series is described as above. It counts as cell-based, Saccharomyces cerevisiae.
Source text: as §1, §2

Series [11] has as its system wild-type Fus3 expressing yeast. The series is described as follows: Yeast mating assay for Fus3 function. It counts as cell-based, Saccharomyces cerevisiae. The conditions noted are these: all concentrations up to 50 μM.
For series [12], the system named is S. cerevisiae expressing wild-type Fus3, Fus3-as1, or no Fus3. In words: Non-selective cytotoxicity control, mating cultures plated on YPD. In kind it is cell-based, Saccharomyces cerevisiae. The conditions noted are these: any of the three strains.
In series [13] the target is T4, WT v-Src (Rous sarcoma virus subgroup A, UniProt P00524, DEL77-225).
T4 construct: mutant of the v-Src catalytic domain, (the XD4 fragment) were made as glutathione S-transferase (GST) fusion proteins; made in house; host or cells: E. coli (DH5a), pGEX-KT
In words: biochemical. It counts as biochemical. As to conditions: Table 3, wild type; read-out: IC50, vSrc.

Series [14] concerns wild-type strain (CDC28). The series is described as follows: Yeast growth. It counts as cell-based, Saccharomyces cerevisiae. On the procedure:
(§3) Yeast Plasmid and Strain Construction: Media and genetic and microbial techniques were essentially as described (148, 153). All strains were derivatives of W30-3 (ura3-a, leu2-3, 112, trpl-1, his3-11,15, ade2-1, can1-100, GAL+). All strains were grown at 23° C. unless otherwise noted. To create cdc28-as1, the CDC28 coding sequence and 400 bp of 5′-and 386 bp of 3′-flanking DNA was PCR-amplified from genomic DNA and ligated into pRS306 to make pJAU1. The F88G mutation was engineered by oligonucleotide-directed mutagenesis of pJAU1. The plasmid was integrated into the wild-type CDC28 locus following AflII digestion by a pop-in-pop-out strategy as described (148, 153).
as §3, with “To examine the function of Cdc28 in vivo, a yeast strain in which the wild-type copy of CDC28 was replaced by cdc28-as1 was constructed.” for “Yeast Plasmid and Strain Construction:”, “W303 (ura3-1,” for “W30-3 (ura3-a,”, “cdc28-as1 ,” for “cdc28-as1,”, “5′- and” for “5′-and”, “AfII” for “AflII”

Series [15] has as its system cdc28-as1 strain. The series is described as follows: Yeast growth. In kind it is cell-based, Saccharomyces cerevisiae. Here is the method: as §3
as §3, with “To examine the function of Cdc28 in vivo, a yeast strain in which the wild-type copy of CDC28 was replaced by cdc28-as1 was constructed.” for “Yeast Plasmid and Strain Construction:”, “W303 (ura3-1,” for “W30-3 (ura3-a,”, “cdc28-as1 ,” for “cdc28-as1,”, “5′- and” for “5′-and”, “AfII” for “AflII”

The subject of series [16] is Trk family tyrosin kinases. The conditions noted are these: reported (89, 90); cited from earlier work.
The target of series [17] is T5, wild-type c-Abl (Homo sapiens, UniProt P00519).
T5 construct: GST; made in house
T5 sequence (P00519 whole entry): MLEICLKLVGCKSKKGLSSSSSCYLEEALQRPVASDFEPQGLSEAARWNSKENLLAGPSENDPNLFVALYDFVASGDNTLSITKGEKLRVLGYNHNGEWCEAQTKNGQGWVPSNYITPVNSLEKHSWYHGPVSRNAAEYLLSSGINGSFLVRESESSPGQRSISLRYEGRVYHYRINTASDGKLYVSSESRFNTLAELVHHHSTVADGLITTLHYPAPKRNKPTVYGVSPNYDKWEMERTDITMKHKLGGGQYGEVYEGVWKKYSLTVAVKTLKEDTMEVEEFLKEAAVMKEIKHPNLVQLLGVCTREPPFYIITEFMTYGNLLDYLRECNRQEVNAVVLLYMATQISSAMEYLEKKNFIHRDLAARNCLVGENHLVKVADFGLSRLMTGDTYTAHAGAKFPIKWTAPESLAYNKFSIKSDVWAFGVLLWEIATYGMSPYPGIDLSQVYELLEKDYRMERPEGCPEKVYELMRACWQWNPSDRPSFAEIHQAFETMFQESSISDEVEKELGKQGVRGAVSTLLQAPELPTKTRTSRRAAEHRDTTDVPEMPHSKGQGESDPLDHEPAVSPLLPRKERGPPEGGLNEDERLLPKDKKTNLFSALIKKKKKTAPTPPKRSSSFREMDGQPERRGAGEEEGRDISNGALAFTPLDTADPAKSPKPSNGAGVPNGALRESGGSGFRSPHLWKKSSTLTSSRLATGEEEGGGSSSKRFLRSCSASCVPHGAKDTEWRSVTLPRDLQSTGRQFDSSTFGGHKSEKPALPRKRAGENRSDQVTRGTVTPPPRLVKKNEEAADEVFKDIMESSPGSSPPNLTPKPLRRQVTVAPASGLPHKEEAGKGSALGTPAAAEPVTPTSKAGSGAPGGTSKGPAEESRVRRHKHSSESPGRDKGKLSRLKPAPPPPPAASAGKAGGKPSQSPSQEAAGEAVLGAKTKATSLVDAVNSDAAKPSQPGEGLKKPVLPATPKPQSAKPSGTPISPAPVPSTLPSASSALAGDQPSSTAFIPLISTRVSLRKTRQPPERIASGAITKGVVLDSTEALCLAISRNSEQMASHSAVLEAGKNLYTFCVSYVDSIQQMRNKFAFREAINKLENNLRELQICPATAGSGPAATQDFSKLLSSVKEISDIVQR
In words: In vitro inhibition by K252a. It counts as biochemical.

In series [18] the target is cGMP dependent protein kinase. As to conditions: reported (89, 90); cited from earlier work.
Series [19] deals with protein kinase A (Homo sapiens, UniProt P17612). The conditions noted are these: reported (89, 90); cited from earlier work.
The mark [20] stands for this setting: G1 synchronized with α-factor, released into 500 nM.
Setting [21] is: G1 synchronized, released into 5,000 nM.

pIC50: −log10 of the molar value.

T3 sequence (P00546 whole entry F88G): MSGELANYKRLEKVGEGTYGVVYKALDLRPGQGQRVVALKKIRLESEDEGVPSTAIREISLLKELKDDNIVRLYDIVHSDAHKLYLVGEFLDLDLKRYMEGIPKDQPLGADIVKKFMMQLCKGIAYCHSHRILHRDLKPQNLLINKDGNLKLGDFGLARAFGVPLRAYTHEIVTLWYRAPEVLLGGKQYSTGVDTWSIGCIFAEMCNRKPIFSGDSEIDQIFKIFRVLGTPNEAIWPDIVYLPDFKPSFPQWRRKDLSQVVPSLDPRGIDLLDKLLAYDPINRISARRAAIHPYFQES
T3 sequence (P24869 whole entry, further chain): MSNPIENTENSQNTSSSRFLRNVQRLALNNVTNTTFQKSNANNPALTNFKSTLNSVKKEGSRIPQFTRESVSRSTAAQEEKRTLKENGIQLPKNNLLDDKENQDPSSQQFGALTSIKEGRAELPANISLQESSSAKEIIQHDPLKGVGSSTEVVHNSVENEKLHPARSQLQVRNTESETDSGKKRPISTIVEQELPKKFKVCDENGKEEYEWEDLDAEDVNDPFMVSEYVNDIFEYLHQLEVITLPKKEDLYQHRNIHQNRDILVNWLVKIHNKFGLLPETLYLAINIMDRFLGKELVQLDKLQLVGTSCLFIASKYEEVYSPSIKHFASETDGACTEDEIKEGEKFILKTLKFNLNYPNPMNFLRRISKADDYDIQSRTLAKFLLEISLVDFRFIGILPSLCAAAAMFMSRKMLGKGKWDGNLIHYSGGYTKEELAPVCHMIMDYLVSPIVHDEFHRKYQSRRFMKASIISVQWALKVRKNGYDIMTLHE
T1 sequence (P00546 whole entry F88G): as the sequence (P00546 whole entry F88G) above
T1 sequence (P24869 whole entry, further chain): as the sequence (P24869 whole entry, further chain) above

Take `CC(C)(C)n1nc(Cc2cccc3ccccc23)c2c(N)ncnc21` [Compound 6h, 4-amino-1-(tert-butyl)-3-(1′-naphthylmethyl)pyrazolo[3,4-d]pyrimidine]: the pIC50 in [1] was 8.41. Also, the “inhibition of engineered kinases (in words)” value in series [2] is reported as “the most potent inhibitor of every engineered kinase tested”. Moreover, the pIC50 in [2] (within a 3 fold range, read-out: IC50 for all of the glycine mutants) was greater than 8.00. Also, the “concentration at which wild-type kinases are inhibited” value in series [3] (none inhibited below this concentration) was no less than 1 µM. In series [4], the pIC50 was 8.38. Also, the arrest phenotype result in series [5] was “arrested with a 1C DNA content and never budded, even after 6 hours”. In [6] (setting [20]), the “delay of accumulation of the mitotic cyclin Clb2” value was 60 to 90 min; the “delay of initiation of budding and DNA synthesis” value lay in the range of 30 to 60 min. For the same compound, the terminal arrest phenotype result in [6] (G1 synchronized, released into 500 nM) is “arrest with moderate Clb2 levels, highly hyperpolarized buds, and a G2M DNA content”. In addition, in series [6] (setting [21]), the arrest phenotype result was “arrested with a IC DNA content and initially failed to bud”; the “time after which cells eventually budded” value was in the range of 180 to 240 min. Also, the “cell cycle effect (G2/M DNA content, large hyperpolarized buds)” value in [6] (50 nM) is recorded as “delay”. In addition, the “cell cycle effect (G2/M DNA content, large hyperpolarized buds)” value in series [6] (500 nM) is recorded as “arrest”. For the same compound, the cell cycle effect entry in series [6] (asynchronous cells, 5,000 nM) is “non-uniform arrest that included unbudded GI cells as well as large-budded G2/M cells”. Moreover, the “decrease of Fus3-as1 mediated mating” value in [7] is reported as 85 fold. The compound also showed a pIC50 in series [8] of roughly 8.52. In addition, the G2/M transcription result in [9] (500 nM, 120 minutes) is “causes a drop in G2/M transcription”. In series [9] (500 nM, two hours), the “down-regulated transcripts that are cell cycle-regulated” value was 60 transcripts, the “down-regulated transcripts with peak expression at G2/M” value is recorded as 32 transcripts, the “number of genes with […] or greater decreases” value was 66 genes and the “number of genes with […] or greater increases” value is reported as 38 genes. Also, the “down-regulation of the Cln-Cdc28 inhibitor Far 1 transcript” value in [9] (two-hour drug exposure) stood at 20 fold. Moreover, the “effects on wild-type cell physiology” value in series [10] (500 nM) is “has no significant effects on wild-type cell physiology”. Besides, in series [10] (500 nM, 30 minutes), the “number of genes whose transcription changed greater than two-fold” value is on record as 6 genes and the “share of genes whose transcription changed greater than two-fold” value is recorded as 0.1%. In addition, the “number of genes changed” value in series [10] (120 minutes) amounted to 3 genes. In addition, the mating efficiency result in series [11] is reported as “no decrease in mating efficiency”. The “cfu/mL on YPD plates (non-selective cytotoxicity)” value in [12] is “No significant decrease in cfu/mL on YPD plates”. The pIC50 in [13] was 4.55. In addition, the “proliferation of wild-type cells” value in series [14] is “unaffected by the inhibitor except at very high concentrations”. Besides, in [14] (same concentrations), the “growth of wild-type strains” value is “had no effect on the growth of wild-type strains”. In series [15], the “growth of yeast which express Cdc28-as1” value is on record as “completely ablated” and the “inhibitor concentration for complete growth arrest” value was “above 500 nM”. Moreover, in series [15] (in vivo, read-out: inhibitor concentration at which growth is inhibited 50%), the pIC50 was 7.00 to 7.30.
In the case of `COC(=O)[C@@]1(O)C[C@H]2O[C@]1(C)n1c3ccccc3c3c4c(c5c6ccccc6n2c5c31)C(=O)NC4` [Compound K252a, (+)-K252a], the pIC50 in series [16], in [18] and in series [19] was no less than 7.52 each time. In addition, the “inhibition of wild-type protein kinases (in words)” value in series [3] is “can efficiently inhibit Src family kinases, cyclin dependent kinases, and calmodulin dependent kinases”. For the same compound, the “inhibition of wild-type Abl” value in series [17] is on record as “not effectively inhibited”.
